In patent US20130102595A1 (Curis, Inc., priority 2011, published 2013) one finds IC50 and melting point data, which are given here for 17 compounds.

A word on the IC50: it is the concentration that inhibits the measured activity by half. By melting point is commonly meant the temperature, or range, at which the solid turns liquid.

For data set [1], the system named is HDACs (HeLa cell nuclear extracts). As to the kind of experiment: HDAC enzymatic activity, Biomol Color de Lys system. Type of data set: biochemical. Conditions: 1 hour, 25° C. The method in brief: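 IC50 from sigmoidal fit of developer-terminated fluorescence (ex 350-380/em 440-460 nm). Reaction: 1 h at room temperature (25 °C), HeLa nuclear extract as HDAC source, artificial substrate, buffer of 50 mM Tris/Cl pH 8.0 with 137 mM NaCl, 2.7 mM KCl and 1 mM MgCl2.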

A further data set deals with T1, PI3Kα (p110α/p85α) (Homo sapiens, UniProt P42336).
T1 construct: GST (N); made in house; host or cells: Baculovirus-infected Sf9 cells
T1 sequence (P42336 whole entry): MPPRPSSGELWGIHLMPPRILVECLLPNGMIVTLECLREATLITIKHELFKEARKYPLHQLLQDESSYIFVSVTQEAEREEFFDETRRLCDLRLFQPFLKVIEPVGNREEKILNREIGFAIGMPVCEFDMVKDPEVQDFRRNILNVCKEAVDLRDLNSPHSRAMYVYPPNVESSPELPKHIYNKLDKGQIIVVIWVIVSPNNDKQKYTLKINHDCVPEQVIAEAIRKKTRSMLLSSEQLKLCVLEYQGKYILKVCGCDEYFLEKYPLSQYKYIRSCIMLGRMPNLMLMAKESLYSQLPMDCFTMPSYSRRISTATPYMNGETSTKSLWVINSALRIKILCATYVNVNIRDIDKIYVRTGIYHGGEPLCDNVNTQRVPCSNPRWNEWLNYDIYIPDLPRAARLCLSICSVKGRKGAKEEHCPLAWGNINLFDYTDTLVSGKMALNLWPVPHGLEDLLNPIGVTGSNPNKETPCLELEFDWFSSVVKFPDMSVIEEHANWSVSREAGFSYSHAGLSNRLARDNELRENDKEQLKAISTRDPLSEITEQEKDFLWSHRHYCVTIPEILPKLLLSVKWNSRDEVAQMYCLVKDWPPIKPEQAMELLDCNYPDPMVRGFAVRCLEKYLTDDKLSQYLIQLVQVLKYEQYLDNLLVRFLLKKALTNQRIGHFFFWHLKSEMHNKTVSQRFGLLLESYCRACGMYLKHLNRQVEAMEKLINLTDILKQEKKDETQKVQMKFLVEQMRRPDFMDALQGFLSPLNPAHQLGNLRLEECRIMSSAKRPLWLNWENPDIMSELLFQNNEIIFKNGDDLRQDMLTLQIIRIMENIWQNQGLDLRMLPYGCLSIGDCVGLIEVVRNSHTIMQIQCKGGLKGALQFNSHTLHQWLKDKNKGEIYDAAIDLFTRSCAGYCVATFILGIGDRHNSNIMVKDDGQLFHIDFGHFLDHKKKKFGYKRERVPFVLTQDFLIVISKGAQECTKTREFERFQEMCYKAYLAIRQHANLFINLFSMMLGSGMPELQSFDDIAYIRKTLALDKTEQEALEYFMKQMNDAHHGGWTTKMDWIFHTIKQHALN
T1 sequence (P27986 whole entry partner): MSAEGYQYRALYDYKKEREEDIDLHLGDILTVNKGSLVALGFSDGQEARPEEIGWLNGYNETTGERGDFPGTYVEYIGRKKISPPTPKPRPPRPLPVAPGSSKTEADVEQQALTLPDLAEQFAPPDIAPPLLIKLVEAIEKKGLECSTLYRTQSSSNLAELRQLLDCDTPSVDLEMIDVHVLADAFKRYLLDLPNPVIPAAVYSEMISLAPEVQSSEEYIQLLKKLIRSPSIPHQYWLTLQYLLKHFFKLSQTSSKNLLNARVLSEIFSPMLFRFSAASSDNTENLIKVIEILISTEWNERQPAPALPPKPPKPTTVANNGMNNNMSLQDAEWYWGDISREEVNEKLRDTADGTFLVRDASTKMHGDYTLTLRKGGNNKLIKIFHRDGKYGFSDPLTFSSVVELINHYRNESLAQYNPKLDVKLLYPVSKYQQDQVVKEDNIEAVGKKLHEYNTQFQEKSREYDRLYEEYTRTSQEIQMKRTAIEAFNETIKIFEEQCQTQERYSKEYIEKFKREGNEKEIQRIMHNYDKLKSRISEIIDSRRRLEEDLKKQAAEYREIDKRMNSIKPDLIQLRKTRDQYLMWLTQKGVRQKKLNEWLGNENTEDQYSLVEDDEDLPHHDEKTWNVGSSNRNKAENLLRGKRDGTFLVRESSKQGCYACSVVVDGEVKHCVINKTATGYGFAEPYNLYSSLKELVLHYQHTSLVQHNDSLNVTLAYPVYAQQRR
As to the kind of experiment: PI3Kα ADP-Glo assay. The format is biochemical. Conditions: 20 μM PIP2, 10 μM ATP, 30 minutes. An outline of the steps: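 Luminescent ADP-Glo detection, after depletion of residual ATP, quantified ADP made by PI3Kα phosphorylating 20 μM PIP2 at 10 μM ATP. The kinase step ran 30 min at room temperature in HEPES pH 7.4 with MgCl2, DTT and orthovanadate, using baculovirus/Sf9-expressed full-length p110α/p85α complex.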
Background: In ADP-Glo the light output rises with the ADP produced.

On to `CN(CCCCCCC(=O)NO)Cc1cc2nc(-c3cccc4[nH]ncc34)nc(N3CCOCC3)c2s1` [Compound 104, 7-(((2-(1H-indazol-4-yl)-4-morpholinothieno[3,2-d]pyrimidin-6-yl)methyl)(methyl)amino)-N-hydroxyheptanamide], for which the melting point lay within 131 to 133 °C. This compound also gave an IC50 in data set [1] of 100 to 1000 nM. Besides, on PI3Kα (p110α/p85α), the IC50 is < 100 nM.

In turn, `O=C(NO)c1ccc(NCc2cc3nc(-c4cccc5[nH]ncc45)nc(N4CCOCC4)c3s2)nc1` [Compound 76, 6-((2-(1H-indazol-4-yl)-4-morpholinothieno[3,2-d]pyrimidin-6-yl)methylamino)-N-hydroxynicotinamide] gave a melting point of 218 to 220 °C. Further, the IC50 in data set [1] is < 100 nM. Moreover, the IC50 against PI3Kα (p110α/p85α) was < 100 nM.

`CN(Cc1cc2nc(-c3ccccc3CO)nc(N3CCOCC3)c2s1)c1ncc(C(=O)NO)cn1` [Compound 141, N-hydroxy-2-(((2-(2-(hydroxymethyl)phenyl)-4-morpholinothieno[3,2-d]pyrimidin-6-yl)methyl)(methyl)amino)pyrimidine-5-carboxamide] displayed a melting point of 173 to 176 °C. Moreover, in data set [1], the half-inhibitory concentration (IC50) was < 100 nM. The IC50 against PI3Kα (p110α/p85α) fell in the range of 100 to 1000 nM.

Compound `CCNc1ccc(-c2nc(N3CCOCC3)c3sc(CN(C)c4ncc(C(=O)NO)cn4)cc3n2)cc1` [Compound 153, 2-(((2-(4-(ethylamino)phenyl)-4-morpholinothieno[3,2-d]pyrimidin-6-yl)methyl)(methyl)amino)-N-hydroxypyrimidine-5-carboxamide] had a melting point of 185 to 187 °C. In data set [1], the IC50 was < 100 nM. Further, the IC50 on PI3Kα (p110α/p85α) was > 10000 nM.

In the case of `COc1cccc(-c2nc(N3CCOCC3)c3sc(CN(C)c4ncc(C(=O)NO)cn4)cc3n2)c1` [Compound 130, N-hydroxy-2-(((2-(3-methoxyphenyl)-4-morpholinothieno[3,2-d]pyrimidin-6-yl)methyl)(methyl)amino)pyrimidine-5-carboxamide], the melting point is 179 to 181 °C. In addition, the IC50 in data set [1] is < 100 nM. In addition, the IC50 at PI3Kα (p110α/p85α) was in the range of 100 to 1000 nM.

In turn, `CN(Cc1cc2nc(-c3cccc(CN)c3)nc(N3CCOCC3)c2s1)c1ncc(C(=O)NO)cn1` [Compound 137, 2-(((2-(3-(aminomethyl)phenyl)-4-morpholinothieno[3,2-d]pyrimidin-6-yl)methyl)(methyl)amino)-N-hydroxypyrimidine-5-carboxamide] came in with a melting point of 173 to 176 °C. In addition, the IC50 in data set [1] was < 100 nM. The compound also gave an IC50 against PI3Kα (p110α/p85α) of 1000 to 10000 nM.

Compound `COc1ncc(-c2nc(N3CCOCC3)c3sc(C(C)N(C)c4ncc(C(=O)NO)cn4)cc3n2)cn1` (stereo not drawn) [Compound 262, N-Hydroxy-2-((1-(2-(2-methoxypyrimidin-5-yl)-4-morpholinothieno[3,2-d]pyrimidin-6-yl)ethyl)(methyl)amino)pyrimidine-5-carboxamide] displayed a melting point of 210 to 215 °C. The IC50 in data set [1] is < 100 nM. Also, at PI3Kα (p110α/p85α), the IC50 is < 100 nM.

`CNc1ccc(-c2nc(N3CCOCC3)c3sc(CN(C)c4ncc(C(=O)NO)cn4)cc3n2)cc1` [Compound 151, N-hydroxy-2-(methyl((2-(4-(methylamino)phenyl)-4-morpholinothieno[3,2-d]pyrimidin-6-yl)methyl)amino)pyrimidine-5-carboxamide] yielded a melting point of 218 to 220 °C. Moreover, in data set [1], the IC50 was < 100 nM. Moreover, the IC50 against PI3Kα (p110α/p85α) is > 10000 nM.

Turning to `CC(=O)Nc1cccc(-c2nc(N3CCOCC3)c3sc(CN(C)c4ncc(C(=O)NO)cn4)cc3n2)c1` [Compound 107, 2-(((2-(3-acetamidophenyl)-4-morpholinothieno[3,2-d]pyrimidin-6-yl)methyl)(methyl)amino)-N-hydroxypyrimidine-5-carboxamide], the melting point lay within 183 to 185 °C. Moreover, the IC50 in data set [1] is < 100 nM. Further, the IC50 against PI3Kα (p110α/p85α) was in the range of 1000 to 10000 nM.

In the case of `Nc1ncc(-c2nc(N3CCOCC3)c3sc(NS(=O)(=O)c4cccc(/C=C/C(=O)NO)c4)cc3n2)cn1` [Compound 218, (E)-3-(3-(N-(2-(2-aminopyrimidin-5-yl)-4-morpholinothieno[3,2-d]pyrimidin-6-yl)sulfamoyl)phenyl)-N-hydroxyacrylamide], the melting point is > 300 °C. The IC50 in data set [1] is < 100 nM. Further, the IC50 against PI3Kα (p110α/p85α) was < 100 nM.

As for `CN(Cc1cc2nc(-c3ccccc3)nc(N3CCOCC3)c2s1)c1ncc(C(=O)NO)cn1` [Compound 129, N-hydroxy-2-(methyl((4-morpholino-2-phenylthieno[3,2-d]pyrimidin-6-yl)methyl)amino)pyrimidine-5-carboxamide], the melting point lay in the range of 199 to 200 °C. In addition, in data set [1], the IC50 was < 100 nM. Besides, the IC50 against PI3Kα (p110α/p85α) was > 10000 nM.

Take `CN(Cc1cc2nc(-c3ccc(N4CCCC4)cc3)nc(N3CCOCC3)c2s1)c1ncc(C(=O)NO)cn1` [Compound 155, N-hydroxy-2-(methyl((4-morpholino-2-(4-(pyrrolidin-1-yl)phenyl)thieno[3,2-d]pyrimidin-6-yl)methyl)amino)pyrimidine-5-carboxamide]: the melting point lay within 187 to 192 °C. The IC50 in data set [1] is < 100 nM. For the same compound, the IC50 against PI3Kα (p110α/p85α) is > 10000 nM.

`CS(=O)(=O)N1CCN(Cc2cc3nc(-c4cccc5nn(CCCCCC(=O)NO)cc45)nc(N4CCOCC4)c3s2)CC1` [Compound 8, N-hydroxy-6-(4-(6-((4-(methylsulfonyl)piperazin-1-yl)methyl)-4-morpholinothieno[3,2-d]pyrimidin-2-yl)-2H-indazol-2-yl)hexanamide] gave a melting point of 124 to 125 °C. For the same compound, in data set [1], the IC50 was < 100 nM. In addition, at PI3Kα (p110α/p85α), the IC50 is > 10000 nM.

Turning to `COc1ccc(-c2nc(N3CCOCC3)c3sc(S(=O)(=O)Nc4ncc(C(=O)NO)cn4)cc3n2)cn1` [Compound 252, 2-[2-(6-Methoxy-pyridin-3-yl)-4-morpholin-4-yl-thieno[3,2-d]pyrimidine-6-sulfonylamino]-pyrimidine-5-carboxylic acid hydroxyamide], the melting point was 259 to 265 °C. Also, in data set [1], the IC50 is < 100 nM. Besides, the IC50 at PI3Kα (p110α/p85α) was < 100 nM.

`Nc1ncc(-c2nc(N3CCOCC3)c3sc(NCCCCCC(=O)NO)cc3n2)cn1` [Compound 232, 6-[2-(2-Amino-pyrimidin-5-yl)-4-morpholin-4-yl-thieno[3,2-d]pyrimidin-6-ylamino]-hexanoic acid hydroxyamide] yielded a melting point of 220 to 225 °C. The IC50 in data set [1] was < 100 nM. The IC50 on PI3Kα (p110α/p85α) was < 100 nM.

For `CN(Cc1cc2nc(-c3ccc4[nH]c(=O)[nH]c4c3)nc(N3CCOCC3)c2s1)c1ncc(C(=O)NO)cn1` [Compound 186, N-hydroxy-2-(methyl((4-morpholino-2-(2-oxo-2,3-dihydro-1H-benzo[d]imidazol-5-yl)thieno[3,2-d]pyrimidin-6-yl)methyl)amino)pyrimidine-5-carboxamide], the melting point fell in the range of 272 to 275 °C. The IC50 in data set [1] is < 100 nM. Also, the IC50 on PI3Kα (p110α/p85α) is > 10000 nM.

The compound `CN(Cc1cc2nc(-c3ccc(O)cc3)nc(N3CCOCC3)c2s1)c1ncc(C(=O)NO)cn1` [Compound 133, N-hydroxy-2-(((2-(4-hydroxyphenyl)-4-morpholinothieno[3,2-d]pyrimidin-6-yl)methyl)(methyl)amino)pyrimidine-5-carboxamide] registered a melting point of 185 to 195 °C. For the same compound, the IC50 in data set [1] was < 100 nM. In addition, the IC50 against PI3Kα (p110α/p85α) lay within 100 to 1000 nM.
